Results taken from patent publication US20170147742A1 (priority 2014, published 2017).

Tests used:
[1] = tested on: E. coli containing the lasQS device; test: Growth rate of E. coli containing the lasQS inducible device exposed to AHL (microplate OD600); type: cell-based, Escherichia coli; settings: glucose 20 mM
Description: For characterizations of inducible system (lasQS device) in the vector pBbE8K, cells were first grown to stationary phase overnight in LB medium before being diluted 100× into fresh LB medium. The diluted cells were grown to exponential phase (OD600=1), washed and resuspended in supplemented minimal media with varying glucose concentration (20-0.1 mM) as mentioned earlier. Before being subjected to the microplate fluorescence assay, N-(3-Oxododecanoyl)-L-homoserine lactone (3-Oxo-C12-HSL, Sigma-Aldrich) was added to the pre-culture (Top10—pTetR-LasR-pLuxR-RFP) at varying molar concentrations of 10^−7-10^−9 M. The cell cultures were measured for their OD600 and RFP fluorescence for 6 h.
For each promoter, the three OD600 and RFP data were averaged and background absorbance (wells containing only media) and fluorescence (Top10—E8K)) were subtracted from the raw measurements to obtain OD600 and RFP time series. Measurements were obtained in mid-exponential growth and growth rates were calculated as a time derivative of the OD curves, μ=d ln(OD)/dt. The activity of the promoters (RFP synthesis rate per cell) were calculated by, d(RFP)/dt/OD600. Relative promoter units of every promoter studied were calculated by,
The lasQS device used in this study comprised three key components (FIG. 5(A)): the AHL synthetase LasI, the transcription factor LasR, and the lasI promoter. LasI produces the signaling molecule 3-O—C12-HSL (or AHL), and the LasR-AHL complex activates the lasI promoter. First, to examine the characteristics of the lasQS device, we constitutively expressed LasR using a sigma-70 promoter J23105, derived from the BioBrick parts registry (www.partsregistry.org/Part:pSB1K3). The activity of the device was indicated by red fluorescence protein (RFP), which was placed under the control of the lasI promoter. E. coli containing the lasQS device was exogenously exposed to AHL concentrations ranging from 10^−9 M to 10^−7 M and varying glucose concentrations.

wild-type E. coli Top10 = test: Growth rate of wild-type E. coli Top10 with transcription and translation inhibitors (microplate OD600); type: cell-based, Escherichia coli
Description: Seed cultures were grown in LB medium supplemented with 30 μg/ml kanamycin from freshly transformed plates and after 10 to 12 h of overnight growth, pre-cultures were inoculated in fresh LB medium at a dilution of 100× for 2 to 3 h exponential growth (OD600=0.7−1). For characterization of the promoters in the vector pBbE8K, cell cultures were grown in 5 mL of pre-warmed LB medium at 37° C. in 50 mL test tubes, shaken at 225 rpm. The culture tubes were kept in ice for about 5 min to stop further growth and were pelleted by centrifugation for 2 min at 3300 g in 4° C., washed and diluted to OD600=0.1 by resuspension in pre-warmed supplemented minimal media with different glucose concentrations ranging from 20 mM to 0.1 mM. Cultures were then […] into transparent, flat-bottom 96-well plate in triplicate aliquots of […]. The plate was incubated in 37° C. with shaking for 8 min and growth rates were monitored by measuring absorbance at 600 nm and fluorescence were monitored by measuring RFP at excitation 535 nm and emission 600 nm using Synergy HT microplate reader (Biotek) over time. Time series OD600 and RFP data were collected for every 10 min for a total run time of 6 h.
[…] The cells were subjected to a microplate assay to measure their OD600 for 6 h. Three biological replicates were used for all of the experiments conducted.
For each promoter, the three OD600 and RFP data were averaged and background absorbance (wells containing only media) and fluorescence (Top10—E8K)) were subtracted from the raw measurements to obtain OD600 and RFP time series. Measurements were obtained in mid-exponential growth and growth rates were calculated as a time derivative of the OD curves, μ=d ln(OD)/dt. The activity of the promoters (RFP synthesis rate per cell) were calculated by, d(RFP)/dt/OD600. Relative promoter units of every promoter studied were calculated by, […]

E. coli RNA polymerase = E. coli RNA polymerase (Escherichia coli, UniProt P0A8V2); settings: used in simulations, reference (44); read-out: inhibitory potency KI; cited from earlier work
E. coli RNA polymerase, sequence (P0A8V2 whole entry): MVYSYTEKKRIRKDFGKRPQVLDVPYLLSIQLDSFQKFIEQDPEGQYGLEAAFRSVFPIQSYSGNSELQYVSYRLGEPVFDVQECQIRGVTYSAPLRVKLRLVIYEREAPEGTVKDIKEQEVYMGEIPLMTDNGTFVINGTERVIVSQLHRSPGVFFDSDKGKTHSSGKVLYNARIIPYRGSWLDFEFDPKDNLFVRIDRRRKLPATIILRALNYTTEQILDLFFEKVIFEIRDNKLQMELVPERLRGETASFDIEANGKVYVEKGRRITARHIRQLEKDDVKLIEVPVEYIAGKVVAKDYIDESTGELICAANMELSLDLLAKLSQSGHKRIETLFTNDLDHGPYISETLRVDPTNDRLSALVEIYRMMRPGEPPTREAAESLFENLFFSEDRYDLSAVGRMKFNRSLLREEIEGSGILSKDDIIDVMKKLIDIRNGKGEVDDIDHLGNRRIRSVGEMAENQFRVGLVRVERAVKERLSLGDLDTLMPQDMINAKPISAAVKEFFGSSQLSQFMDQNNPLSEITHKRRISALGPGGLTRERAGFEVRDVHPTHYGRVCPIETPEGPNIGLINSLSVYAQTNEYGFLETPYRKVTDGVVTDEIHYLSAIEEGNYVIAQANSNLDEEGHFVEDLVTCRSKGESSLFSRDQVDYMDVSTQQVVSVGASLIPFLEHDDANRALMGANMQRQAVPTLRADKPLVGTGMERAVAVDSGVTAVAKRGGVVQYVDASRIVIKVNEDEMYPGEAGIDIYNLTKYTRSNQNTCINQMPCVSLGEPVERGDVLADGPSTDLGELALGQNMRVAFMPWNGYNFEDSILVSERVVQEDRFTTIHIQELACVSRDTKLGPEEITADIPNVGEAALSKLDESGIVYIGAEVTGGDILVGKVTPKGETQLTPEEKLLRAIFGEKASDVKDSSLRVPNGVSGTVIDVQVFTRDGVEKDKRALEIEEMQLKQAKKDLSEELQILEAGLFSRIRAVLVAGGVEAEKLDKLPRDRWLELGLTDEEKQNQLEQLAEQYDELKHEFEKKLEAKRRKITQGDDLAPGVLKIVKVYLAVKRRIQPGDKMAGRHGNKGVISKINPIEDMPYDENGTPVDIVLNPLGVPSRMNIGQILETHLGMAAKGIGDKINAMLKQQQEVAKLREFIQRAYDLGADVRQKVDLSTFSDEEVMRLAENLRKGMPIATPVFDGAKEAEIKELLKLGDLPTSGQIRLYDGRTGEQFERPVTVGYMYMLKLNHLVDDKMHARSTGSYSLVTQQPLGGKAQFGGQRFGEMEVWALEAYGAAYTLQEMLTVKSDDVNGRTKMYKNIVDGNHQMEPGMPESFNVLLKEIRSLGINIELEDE
E. coli RNA polymerase, sequence (P0A8T7 whole entry partner): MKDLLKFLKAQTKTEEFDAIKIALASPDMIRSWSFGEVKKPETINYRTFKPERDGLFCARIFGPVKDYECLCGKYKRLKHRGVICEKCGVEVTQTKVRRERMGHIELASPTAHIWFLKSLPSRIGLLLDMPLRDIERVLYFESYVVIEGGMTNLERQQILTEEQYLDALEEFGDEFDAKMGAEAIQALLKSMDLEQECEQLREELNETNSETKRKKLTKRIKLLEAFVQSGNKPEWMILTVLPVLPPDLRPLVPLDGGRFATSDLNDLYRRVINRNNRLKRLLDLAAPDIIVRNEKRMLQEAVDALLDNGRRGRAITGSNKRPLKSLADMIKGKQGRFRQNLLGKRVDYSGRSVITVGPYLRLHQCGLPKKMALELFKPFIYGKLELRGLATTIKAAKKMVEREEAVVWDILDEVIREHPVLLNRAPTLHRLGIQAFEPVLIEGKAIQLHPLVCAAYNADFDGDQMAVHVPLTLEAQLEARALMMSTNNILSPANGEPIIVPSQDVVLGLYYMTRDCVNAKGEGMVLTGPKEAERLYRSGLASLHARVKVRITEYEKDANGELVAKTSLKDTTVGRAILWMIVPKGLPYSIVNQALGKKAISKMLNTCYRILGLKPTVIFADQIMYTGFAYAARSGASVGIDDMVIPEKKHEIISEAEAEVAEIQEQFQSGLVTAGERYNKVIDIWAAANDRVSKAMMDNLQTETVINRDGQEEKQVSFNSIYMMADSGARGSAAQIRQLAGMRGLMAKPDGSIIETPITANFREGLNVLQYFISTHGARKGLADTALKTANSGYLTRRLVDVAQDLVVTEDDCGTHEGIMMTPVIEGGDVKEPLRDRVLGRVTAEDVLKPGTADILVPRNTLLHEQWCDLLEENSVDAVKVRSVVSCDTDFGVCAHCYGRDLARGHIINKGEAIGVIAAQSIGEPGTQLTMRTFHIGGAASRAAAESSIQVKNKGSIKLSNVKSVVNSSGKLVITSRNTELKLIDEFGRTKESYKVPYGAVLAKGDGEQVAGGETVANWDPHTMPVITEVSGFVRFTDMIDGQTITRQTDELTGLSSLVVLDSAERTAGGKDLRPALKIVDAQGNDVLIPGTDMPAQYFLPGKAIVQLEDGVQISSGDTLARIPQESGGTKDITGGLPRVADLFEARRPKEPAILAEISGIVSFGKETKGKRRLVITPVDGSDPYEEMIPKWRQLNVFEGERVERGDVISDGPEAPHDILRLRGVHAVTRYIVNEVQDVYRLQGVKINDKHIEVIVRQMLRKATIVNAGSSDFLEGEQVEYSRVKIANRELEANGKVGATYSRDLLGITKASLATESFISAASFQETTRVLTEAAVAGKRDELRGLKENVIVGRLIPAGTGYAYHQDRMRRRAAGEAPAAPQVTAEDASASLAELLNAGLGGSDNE
E. coli RNA polymerase, sequence (P0A7Z4 whole entry partner): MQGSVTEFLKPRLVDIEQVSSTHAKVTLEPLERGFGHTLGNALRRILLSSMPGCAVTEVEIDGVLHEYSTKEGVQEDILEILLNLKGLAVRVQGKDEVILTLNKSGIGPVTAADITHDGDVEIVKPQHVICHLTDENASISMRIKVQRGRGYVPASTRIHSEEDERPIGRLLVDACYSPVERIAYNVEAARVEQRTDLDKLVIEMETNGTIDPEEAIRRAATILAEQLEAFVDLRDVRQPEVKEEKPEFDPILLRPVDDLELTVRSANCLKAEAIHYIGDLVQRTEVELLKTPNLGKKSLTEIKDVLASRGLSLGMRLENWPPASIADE
E. coli RNA polymerase, sequence (P0A800 whole entry partner): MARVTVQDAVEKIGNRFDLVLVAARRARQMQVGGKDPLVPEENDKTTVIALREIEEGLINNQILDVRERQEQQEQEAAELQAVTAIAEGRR

## CCCCCCCCCC(=O)CC(=O)N[C@H]1CCOC1=O [AHL, N-(3-Oxododecanoyl)-L-homoserine lactone]
[1]; AHL 10^−7 M
  reduction in growth rate: 23%
[1]; AHL 10^−8 M
  reduction in growth rate: 13%
[1]; AHL 10^−9M
  reduction in growth rate: 7%

## CN(C)[C@@H]1C(O)=C(C(N)=O)C(=O)[C@@]2(O)C(O)=C3C(=O)c4c(O)cccc4[C@@](C)(O)[C@H]3C[C@@H]12 [tetracycline]
wild-type E. coli Top10; tetracycline 4 μM
  growth rate: 0.19 doublings per hour
wild-type E. coli Top10; tetracycline concentration of 1
  growth rate: 0.66 doublings per hour
wild-type E. coli Top10; tetracycline concentration of 2
  growth rate: 0.38 doublings per hour

## CO[C@H]1/C=C/O[C@@]2(C)Oc3c(C)c(O)c4c(O)c(c(/C=N/N5CCN(C)CC5)c(O)c4c3C2=O)NC(=O)/C(C)=C\C=C\[C@H](C)[C@H](O)[C@@H](C)[C@@H](O)[C@@H](C)[C@H](OC(C)=O)[C@@H]1C [rifampicin]
E. coli RNA polymerase
  Ki: 1 nM
wild-type E. coli Top10; rifampicin 6 μM, maximum glucose concentration
  growth rate: 0.79 doublings per hour
wild-type E. coli Top10; rifampicin 8 μM, maximum glucose concentration
  growth rate: 0.68 doublings per hour
wild-type E. coli Top10; rifampicin 10 μM, maximum glucose concentration, M9 supplemented media
  growth rate: 0.55 doubling per hour
